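How tested: cells in 96-well plates exposed to compound for 48 hours at five concentrations. The concentration for 50% growth inhibition is given as GI50.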 Active and inactive are the calls of the source. Rule as the data show it: active = GI50 up to about 1.1 µM and inactive = higher.
How the values were obtained:
Experiment in all cases: NCI anticancer screen, dose series, 48 h
[1] = tested on: 786-0
[2] = tested on: A498
[3] = tested on: A549
[4] = tested on: ACHN
[5] = tested on: CAKI-1
[6] = tested on: CCRF-CEM
[7] = tested on: COLO 205
[8] = tested on: DU-145
[9] = tested on: HCC 2998
[10] = tested on: HCT-116
[11] = tested on: HCT-15
[12] = tested on: HOP-62
[13] = tested on: HOP-92
[14] = tested on: HT-29
[15] = tested on: Hs-578T
[16] = tested on: IGROV-1
[17] = tested on: KM12
[18] = tested on: M14
[19] = tested on: MCF7
[20] = tested on: MDA-MB-231
[21] = tested on: MDA-MB-435
[22] = tested on: MDA-N
[23] = tested on: MOLT-4
[24] = tested on: Malme-3M
[25] = tested on: NCI-H226
[26] = tested on: NCI-H460
[27] = tested on: NCI-H522
[28] = tested on: NCI/ADR-RES
[29] = tested on: OVCAR-3
[30] = tested on: OVCAR-4
[31] = tested on: OVCAR-5
[32] = tested on: OVCAR-8
[33] = tested on: PC-3
[34] = tested on: RXF 393
[35] = tested on: SF-268
[36] = tested on: SF-295
[37] = tested on: SF-539
[38] = tested on: SK-MEL-28
[39] = tested on: SK-MEL-2
[40] = tested on: SK-OV-3
[41] = tested on: SN12C
[42] = tested on: SNB-75
[43] = tested on: SR
[44] = tested on: SW-620
[45] = tested on: T47D
[46] = tested on: TK-10
[47] = tested on: U-251
[48] = tested on: UACC-257
[49] = tested on: BT-549
[50] = tested on: EKVX
[51] = tested on: HL-60
[52] = tested on: K562
[53] = tested on: LOX IMVI
[54] = tested on: NCI-H23
[55] = tested on: RPMI-8226
[56] = tested on: SK-MEL-5
[57] = tested on: SNB-19
[58] = tested on: UACC-62
[59] = tested on: UO-31

Compound: c1ccc(C2=C(c3ccccc3)P(c3ccccc3)C2)cc1 (stereo not drawn)
- GI50 [1]: > 100 µM (inactive)
- GI50 [2]: > 100 µM (inactive)
- GI50 [3]: 43.4 µM (inactive)
- GI50 [4]: > 100 µM (inactive)
- GI50 [5]: > 100 µM (inactive)
- GI50 [6]: 22.5 µM (inactive)
- GI50 [7]: > 100 µM (inactive)
- GI50 [8]: > 100 µM (inactive)
- GI50 [9]: > 100 µM (inactive)
- GI50 [10]: 83.4 µM (inactive)
- GI50 [11]: > 100 µM
- GI50 [12]: > 100 µM (inactive)
- GI50 [13]: > 100 µM (inactive)
- GI50 [14]: > 100 µM (inactive)
- GI50 [15]: 40.5 µM (inactive)
- GI50 [16]: 64.3 µM (inactive)
- GI50 [17]: 49.7 µM (inactive)
- GI50 [18]: > 100 µM (inactive)
- GI50 [19]: > 100 µM (inactive)
- GI50 [20]: > 100 µM (inactive)
- GI50 [21]: 57.4 µM (inactive)
- GI50 [22]: > 100 µM (inactive)
- GI50 [23]: 22.1 µM (inactive)
- GI50 [24]: 67.1 µM (inactive)
- GI50 [25]: 53.2 µM (inactive)
- GI50 [26]: 92.3 µM (inactive)
- GI50 [27]: 47.6 µM (inactive)
- GI50 [28]: 40.1 µM (inactive)
- GI50 [29]: 78.7 µM (inactive)
- GI50 [30]: > 100 µM (inactive)
- GI50 [31]: > 100 µM (inactive)
- GI50 [32]: 89.7 µM (inactive)
- GI50 [33]: 48.1 µM (inactive)
- GI50 [34]: > 100 µM (inactive)
- GI50 [35]: > 100 µM (inactive)
- GI50 [36]: 41 µM (inactive)
- GI50 [37]: > 100 µM (inactive)
- GI50 [38]: > 100 µM (inactive)
- GI50 [39]: > 100 µM (inactive)
- GI50 [40]: > 100 µM (inactive)
- GI50 [41]: > 100 µM (inactive)
- GI50 [42]: 32.7 µM (inactive)
- GI50 [43]: 22.8 µM (inactive)
- GI50 [44]: 64 µM (inactive)
- GI50 [45]: > 100 µM (inactive)
- GI50 [46]: > 100 µM (inactive)
- GI50 [47]: 68.1 µM (inactive)
- GI50 [48]: > 100 µM (inactive)

Compound: C/C(=C\COP(=O)(O)CP(=O)(O)O)CC/C=C(\C)CNc1ccccc1
- GI50 [1]: > 100 µM (inactive)
- GI50 [3]: > 100 µM (inactive)
- GI50 [4]: > 100 µM (inactive)
- GI50 [49]: 14.6 µM (inactive)
- GI50 [5]: > 100 µM (inactive)
- GI50 [6]: > 100 µM (inactive)
- GI50 [7]: > 100 µM (inactive)
- GI50 [8]: > 100 µM (inactive)
- GI50 [50]: 15.7 µM (inactive)
- GI50 [10]: > 100 µM (inactive)
- GI50 [11]: > 100 µM
- GI50 [51]: > 100 µM (inactive)
- GI50 [12]: > 100 µM (inactive)
- GI50 [14]: > 100 µM (inactive)
- GI50 [15]: > 100 µM (inactive)
- GI50 [16]: > 100 µM (inactive)
- GI50 [52]: > 100 µM (inactive)
- GI50 [17]: > 100 µM (inactive)
- GI50 [53]: > 100 µM (inactive)
- GI50 [18]: > 100 µM (inactive)
- GI50 [19]: > 100 µM (inactive)
- GI50 [20]: > 100 µM (inactive)
- GI50 [21]: > 100 µM (inactive)
- GI50 [23]: > 100 µM (inactive)
- GI50 [25]: > 100 µM (inactive)
- GI50 [54]: 6.28 µM (inactive)
- GI50 [26]: > 100 µM (inactive)
- GI50 [27]: > 100 µM (inactive)
- GI50 [28]: > 100 µM (inactive)
- GI50 [29]: > 100 µM (inactive)
- GI50 [31]: > 100 µM (inactive)
- GI50 [32]: > 100 µM (inactive)
- GI50 [33]: > 100 µM (inactive)
- GI50 [55]: > 100 µM (inactive)
- GI50 [34]: > 100 µM (inactive)
- GI50 [35]: > 100 µM (inactive)
- GI50 [36]: > 100 µM (inactive)
- GI50 [37]: > 100 µM (inactive)
- GI50 [38]: > 100 µM (inactive)
- GI50 [39]: > 100 µM (inactive)
- GI50 [56]: > 100 µM (inactive)
- GI50 [40]: > 100 µM (inactive)
- GI50 [41]: > 100 µM (inactive)
- GI50 [57]: > 100 µM (inactive)
- GI50 [42]: > 100 µM (inactive)
- GI50 [44]: > 100 µM (inactive)
- GI50 [45]: > 100 µM (inactive)
- GI50 [46]: > 100 µM (inactive)
- GI50 [47]: > 100 µM (inactive)
- GI50 [48]: > 100 µM (inactive)
- GI50 [58]: > 100 µM (inactive)
- GI50 [59]: > 100 µM (inactive)

Compound: Clc1ccc2sc(-n3ccc4ccccc43)nc2c1
- GI50 [2]: > 100 µM (inactive)
- GI50 [4]: > 100 µM (inactive)
- GI50 [49]: 84.3 µM (inactive)
- GI50 [6]: > 100 µM (inactive)
- GI50 [50]: > 100 µM (inactive)
- GI50 [9]: > 100 µM (inactive)
- GI50 [11]: > 100 µM
- GI50 [14]: 75.9 µM (inactive)
- GI50 [15]: 72.6 µM (inactive)
- GI50 [16]: > 100 µM (inactive)
- GI50 [52]: 97.1 µM (inactive)
- GI50 [53]: > 100 µM (inactive)
- GI50 [19]: 26.1 µM (inactive)
- GI50 [23]: 55.7 µM (inactive)
- GI50 [54]: 45.7 µM (inactive)
- GI50 [26]: > 100 µM (inactive)
- GI50 [28]: > 100 µM (inactive)
- GI50 [31]: > 100 µM (inactive)
- GI50 [32]: > 100 µM (inactive)
- GI50 [33]: 67.6 µM (inactive)
- GI50 [34]: 13.3 µM (inactive)
- GI50 [35]: > 100 µM (inactive)
- GI50 [38]: > 100 µM (inactive)
- GI50 [56]: > 100 µM (inactive)
- GI50 [40]: > 100 µM (inactive)
- GI50 [41]: > 100 µM (inactive)
- GI50 [57]: 24.2 µM (inactive)
- GI50 [42]: 49.3 µM (inactive)
- GI50 [44]: > 100 µM (inactive)
- GI50 [46]: > 100 µM (inactive)
- GI50 [47]: > 100 µM (inactive)
- GI50 [58]: > 100 µM (inactive)
- GI50 [59]: > 100 µM (inactive)
